Experimental data taken from patent US9194862B2, “Compositions and methods for determining cancer stem cell self-renewal potential” (THE REGENTS OF THE UNIVERSITY OF CALIFORNIA, priority 2009, dated 2015).

How the values were obtained:
[1] = test system: Mcl-1 long and short isoform; assay: qPCR of Mcl-1 long and short isoforms in tumor cells harvested from treated mice; format: in vivo; conditions: tumor cells from treated mice (n=3) vs vehicle (n=2)
Description: For gene expression analysis, cDNA was made from RNA isolated from sorted progenitor populations (CD34^+CD38^+Lin^−). Isoform specific RT-PCR was used to determine expression levels of Bcl-2, Bcl-X, and Mcl-1 isoforms. Expression was confirmed using qPCR.

[2] = test system: progenitors (CD34+CD38+Lin−) from CML BC-derived tumors; assay: CML BC progenitor engraftment in transplanted mice, FACS of human CD45+ cells in liver; format: in vivo; conditions: oral gavage daily for 3 weeks, 120 μg/kg, vs vehicle, FACS of livers, n=4 vs n=5, p=0.03
Protocol: Briefly, immunocompromised neonatal mice were transplanted intrahepatically with luciferase GFP transduced myeloid sarcomas from mice transplanted with BC CSC, the methodology described in Geron et al, Cancer Cell 2008; 13(4):321-30. […] Engraftment levels were determined by FACS analysis of human CD45^+ expression in mouse livers on […] post-transplant.
FIG. 3C. Left: qPCR analysis of Mcl-1 long (blue) and short (red) transcripts from progenitors (CD34^+CD38^+Lin^−) of several normal and CML samples. […] FIG. 4 below. […] FIG. 4A. […] Representative FACS data of CD45^+ cells in mouse livers transplanted with progenitors (CD34^+CD38^+Lin^−) from CML BC-derived tumors. […] Mouse livers were harvested at 13 weeks post-transplant, stained, and analyzed for human CD45^+ cells using FACS. • FIG. 4C.

For `Cc1cc2c(C(C)C)c(O)c(O)cc2c(O)c1-c1c(C)cc2c(C(C)C)c(O)c(O)cc2c1O` [apogossypol], the “Mcl-1 short isoform expression” value [1] was “higher Mcl-1 short isoform expression”, the “number/frequency of human CD45+ cells engrafted in the mouse liver (tumor cell engraftment)” value [2] was “statistically significant (p=0.03) decrease in tumor cell engraftment” and the “number/frequency of human CD45+ cells engrafted in the mouse liver (tumor cell engraftment)” value ([2]; listed as Apogossypol) was “statistically significant decrease”.
